Laboratory results reported in ChEMBL document CHEMBL1201862, “PubChem BioAssay data set” (2004).
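All cell lines were grown in 96-well plates and treated with compound for 48 hours. GI50 is the concentration that inhibits growth by half.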 Active and inactive are the calls of the source. No stated cut-off is given here; in the data, active = GI50 up to about 1.1 µM and inactive = higher.

Assays:
Assay in all cases: inhibition of tumour cell growth, NCI panel, 48 h
TK-10 = tested on: TK-10
SK-MEL-5 = tested on: SK-MEL-5
EKVX = tested on: EKVX
RPMI-8226 = tested on: RPMI-8226
SK-MEL-28 = tested on: SK-MEL-28
NCI-H226 = tested on: NCI-H226
CAKI-1 = tested on: CAKI-1
HCC 2998 = tested on: HCC 2998
UO-31 = tested on: UO-31
SNB-19 = tested on: SNB-19
MOLT-4 = tested on: MOLT-4
UACC-62 = tested on: UACC-62
HOP-92 = tested on: HOP-92
SK-OV-3 = tested on: SK-OV-3
SW-620 = tested on: SW-620
NCI-H23 = tested on: NCI-H23
SF-268 = tested on: SF-268
U-251 = tested on: U-251

Cc1ccc2nc(NC(=O)C(=O)CC(=O)c3cccc4ccccc34)sc2c1
GI50 (TK-10): 24.1 µM (inactive) | GI50 (SK-MEL-5): 23.1 µM (inactive) | GI50 (EKVX): 92 µM (inactive) | GI50 (RPMI-8226): 91.8 µM (inactive) | GI50 (SK-MEL-28): 48.4 µM (inactive) | GI50 (NCI-H226): 19.8 µM (inactive) | GI50 (CAKI-1): 22.2 µM (inactive) | GI50 (HCC 2998): 39.2 µM (inactive) | GI50 (UO-31): > 100 µM (inactive) | GI50 (SNB-19): 39.7 µM (inactive) | GI50 (MOLT-4): 42.1 µM (inactive) | GI50 (UACC-62): 25.6 µM (inactive) | GI50 (HOP-92): 14.8 µM (inactive) | GI50 (SK-OV-3): 19.2 µM (inactive) | GI50 (SW-620): 38.9 µM (inactive) | GI50 (NCI-H23): 50.8 µM (inactive) | GI50 (SF-268): 32.6 µM (inactive) | GI50 (U-251): 22 µM (inactive)

O=C1c2cccc3cc([N+](=O)[O-])cc(c23)C(=O)N1CCCN1CCN(CCCN2C(=O)c3cccc4cc([N+](=O)[O-])cc(c34)C2=O)CC1
GI50 (TK-10): 0.798 µM (active) | GI50 (SK-MEL-5): 0.0853 µM (active) | GI50 (EKVX): 0.612 µM (active) | GI50 (RPMI-8226): 0.0887 µM (active) | GI50 (NCI-H226): 0.0702 µM (active) | GI50 (CAKI-1): 0.0293 µM (active) | GI50 (HCC 2998): 0.0625 µM (active) | GI50 (UO-31): 0.0695 µM (active) | GI50 (SNB-19): 0.122 µM (active) | GI50 (MOLT-4): 0.027 µM (active) | GI50 (UACC-62): 0.0579 µM (active) | GI50 (HOP-92): 0.237 µM (active) | GI50 (SK-OV-3): 2.59 µM (inactive) | GI50 (SW-620): 0.0284 µM (active) | GI50 (NCI-H23): 0.859 µM (active) | GI50 (U-251): 0.0248 µM (active)

CCC1NCC(=O)c2c1[nH]c1ccccc21 (stereo not drawn)
GI50 (TK-10): > 100 µM (inactive) | GI50 (SK-MEL-5): > 100 µM (inactive) | GI50 (EKVX): > 100 µM (inactive) | GI50 (RPMI-8226): > 100 µM (inactive) | GI50 (SK-MEL-28): > 100 µM (inactive) | GI50 (NCI-H226): > 100 µM (inactive) | GI50 (CAKI-1): > 100 µM (inactive) | GI50 (HCC 2998): > 100 µM (inactive) | GI50 (UO-31): > 100 µM (inactive) | GI50 (SNB-19): > 100 µM (inactive) | GI50 (MOLT-4): > 100 µM (inactive) | GI50 (UACC-62): > 100 µM (inactive) | GI50 (HOP-92): > 100 µM (inactive) | GI50 (SK-OV-3): > 100 µM (inactive) | GI50 (SW-620): > 100 µM (inactive) | GI50 (NCI-H23): > 100 µM (inactive) | GI50 (SF-268): > 100 µM (inactive) | GI50 (U-251): > 100 µM (inactive)

CCCOC(=O)C1CCC(=O)N1C(=O)C(C)Cl (stereo not drawn)
GI50 (TK-10): > 100 µM (inactive) | GI50 (SK-MEL-5): > 100 µM (inactive) | GI50 (EKVX): > 100 µM (inactive) | GI50 (RPMI-8226): > 100 µM (inactive) | GI50 (SK-MEL-28): > 100 µM (inactive) | GI50 (NCI-H226): > 100 µM (inactive) | GI50 (CAKI-1): > 100 µM (inactive) | GI50 (HCC 2998): > 100 µM (inactive) | GI50 (UO-31): > 100 µM (inactive) | GI50 (SNB-19): > 100 µM (inactive) | GI50 (MOLT-4): > 100 µM (inactive) | GI50 (UACC-62): > 100 µM (inactive) | GI50 (HOP-92): > 100 µM (inactive) | GI50 (SK-OV-3): > 100 µM (inactive) | GI50 (SW-620): > 100 µM (inactive) | GI50 (NCI-H23): > 100 µM (inactive) | GI50 (SF-268): > 100 µM (inactive) | GI50 (U-251): > 100 µM (inactive)

O=C(O)CNCc1c2ccccc2[n+]([O-])c2ccccc12
GI50 (TK-10): > 100 µM (inactive) | GI50 (SK-MEL-5): 48.1 µM (inactive) | GI50 (EKVX): > 100 µM (inactive) | GI50 (RPMI-8226): 30.8 µM (inactive) | GI50 (SK-MEL-28): 75.7 µM (inactive) | GI50 (NCI-H226): > 100 µM (inactive) | GI50 (CAKI-1): > 100 µM (inactive) | GI50 (HCC 2998): 21.7 µM (inactive) | GI50 (UO-31): 21.1 µM (inactive) | GI50 (SNB-19): > 100 µM (inactive) | GI50 (MOLT-4): 31 µM (inactive) | GI50 (UACC-62): 58.1 µM (inactive) | GI50 (HOP-92): 16.9 µM (inactive) | GI50 (SK-OV-3): > 100 µM (inactive) | GI50 (SW-620): 47 µM (inactive) | GI50 (NCI-H23): 69.3 µM (inactive) | GI50 (SF-268): 43.8 µM (inactive) | GI50 (U-251): > 100 µM (inactive)

COc1ccc(OC)c(/C=C2\CCc3ccccc3C2=O)c1
GI50 (TK-10): 5.16 µM (inactive) | GI50 (SK-MEL-5): 3.17 µM (inactive) | GI50 (EKVX): 3.2 µM (inactive) | GI50 (RPMI-8226): 3.6 µM (inactive) | GI50 (SK-MEL-28): 5.12 µM (inactive) | GI50 (NCI-H226): 3.72 µM (inactive) | GI50 (CAKI-1): 4.65 µM (inactive) | GI50 (HCC 2998): 2 µM (inactive) | GI50 (SNB-19): 5.6 µM (inactive) | GI50 (MOLT-4): 2.59 µM (inactive) | GI50 (UACC-62): 1.76 µM (inactive) | GI50 (HOP-92): 1.23 µM (inactive) | GI50 (SK-OV-3): 2.58 µM (inactive) | GI50 (SW-620): 1.12 µM (active) | GI50 (NCI-H23): 3.39 µM (inactive) | GI50 (SF-268): 4.84 µM (inactive) | GI50 (U-251): 3.3 µM (inactive)

C/C=C(\C)C(=O)N1c2ccccc2CC1c1c(C)[nH]c2ccccc12 (stereo not drawn)
GI50 (TK-10): 73.3 µM (inactive) | GI50 (SK-MEL-5): > 10 µM (inactive) | GI50 (EKVX): 71.1 µM (inactive) | GI50 (RPMI-8226): 25.3 µM (inactive) | GI50 (SK-MEL-28): > 100 µM (inactive) | GI50 (NCI-H226): > 100 µM (inactive) | GI50 (CAKI-1): 48.8 µM (inactive) | GI50 (HCC 2998): > 100 µM (inactive) | GI50 (UO-31): 36.1 µM (inactive) | GI50 (SNB-19): > 100 µM (inactive) | GI50 (MOLT-4): 19.9 µM (inactive) | GI50 (UACC-62): 40.7 µM (inactive) | GI50 (HOP-92): 12.2 µM (inactive) | GI50 (SK-OV-3): > 100 µM (inactive) | GI50 (SW-620): > 100 µM (inactive) | GI50 (NCI-H23): 55.2 µM (inactive) | GI50 (U-251): 91.6 µM (inactive)

C[C@]12CC[C@H](O)CC1=CC[C@@H]1C2CC[C@]2(C)C(=O)N(N)C(=O)CC12 (stereo partly drawn)
GI50 (TK-10): > 100 µM (inactive) | GI50 (SK-MEL-5): > 100 µM (inactive) | GI50 (EKVX): > 100 µM (inactive) | GI50 (RPMI-8226): > 100 µM (inactive) | GI50 (SK-MEL-28): > 100 µM (inactive) | GI50 (NCI-H226): > 100 µM (inactive) | GI50 (CAKI-1): > 100 µM (inactive) | GI50 (HCC 2998): > 100 µM (inactive) | GI50 (UO-31): > 100 µM (inactive) | GI50 (SNB-19): > 100 µM (inactive) | GI50 (MOLT-4): > 100 µM (inactive) | GI50 (UACC-62): > 100 µM (inactive) | GI50 (HOP-92): > 100 µM (inactive) | GI50 (SK-OV-3): > 100 µM (inactive) | GI50 (SW-620): > 100 µM (inactive) | GI50 (NCI-H23): > 100 µM (inactive) | GI50 (SF-268): > 100 µM (inactive) | GI50 (U-251): > 100 µM (inactive)

O=C1CC2(C[C@@H]3CCCCCCCCC[C@@H](C3)C2)N1 (stereo partly drawn)
GI50 (TK-10): 17.1 µM (inactive) | GI50 (SK-MEL-5): 16.4 µM (inactive) | GI50 (EKVX): 14.4 µM (inactive) | GI50 (RPMI-8226): 13.7 µM (inactive) | GI50 (SK-MEL-28): 17.2 µM (inactive) | GI50 (NCI-H226): 14.3 µM (inactive) | GI50 (CAKI-1): 12.6 µM (inactive) | GI50 (HCC 2998): 12.2 µM (inactive) | GI50 (UO-31): 14.4 µM (inactive) | GI50 (SNB-19): 20 µM (inactive) | GI50 (MOLT-4): 12.4 µM (inactive) | GI50 (UACC-62): 15.8 µM (inactive) | GI50 (HOP-92): 10.8 µM (inactive) | GI50 (SK-OV-3): 15.1 µM (inactive) | GI50 (SW-620): 18.7 µM (inactive) | GI50 (NCI-H23): 16.7 µM (inactive) | GI50 (SF-268): 20.4 µM (inactive) | GI50 (U-251): 16.6 µM (inactive)

COC(=O)CC(C(C(=O)OC)C(=O)OC)N1C(=O)OC(c2ccccc2)C1c1ccccc1 (stereo not drawn)
GI50 (TK-10): > 100 µM (inactive) | GI50 (SK-MEL-5): > 100 µM (inactive) | GI50 (EKVX): > 100 µM (inactive) | GI50 (RPMI-8226): 45.6 µM (inactive) | GI50 (SK-MEL-28): > 100 µM (inactive) | GI50 (NCI-H226): > 100 µM (inactive) | GI50 (CAKI-1): 19.3 µM (inactive) | GI50 (HCC 2998): 34 µM (inactive) | GI50 (UO-31): > 100 µM (inactive) | GI50 (SNB-19): > 100 µM (inactive) | GI50 (MOLT-4): > 100 µM (inactive) | GI50 (UACC-62): > 100 µM (inactive) | GI50 (HOP-92): > 100 µM (inactive) | GI50 (SK-OV-3): > 100 µM (inactive) | GI50 (SW-620): 26.1 µM (inactive) | GI50 (NCI-H23): > 100 µM (inactive) | GI50 (SF-268): > 100 µM (inactive) | GI50 (U-251): 89.5 µM (inactive)

Cc1c(O)c(=O)ccn1CCN
GI50 (TK-10): > 100 µM (inactive) | GI50 (EKVX): > 100 µM (inactive) | GI50 (RPMI-8226): > 100 µM (inactive) | GI50 (SK-MEL-28): > 100 µM (inactive) | GI50 (NCI-H226): > 100 µM (inactive) | GI50 (CAKI-1): > 100 µM (inactive) | GI50 (HCC 2998): > 100 µM (inactive) | GI50 (UO-31): > 100 µM (inactive) | GI50 (SNB-19): > 100 µM (inactive) | GI50 (MOLT-4): > 100 µM (inactive) | GI50 (UACC-62): > 100 µM (inactive) | GI50 (HOP-92): > 100 µM (inactive) | GI50 (SK-OV-3): > 100 µM (inactive) | GI50 (SW-620): > 100 µM (inactive) | GI50 (NCI-H23): > 100 µM (inactive) | GI50 (SF-268): > 100 µM (inactive) | GI50 (U-251): > 100 µM (inactive)
